Data taken from the supplement of paper PMC10307832.

Key:
Experiment in all cases: relative viability (nuclei count vs DMSO), 5 days (fraction); higher = more cells survive
[1] = compound: C1/C(=C\C2=CC=CS2)/C(=O)/C(=C/C3=CC=CS3)/C1 + Nc1nc2[nH]cc(CCc3ccc(C(=O)N[C@@H](CCC(=O)O)C(=O)O)cc3)c2c(=O)[nH]1 [Pemetrexed] (partner 0.2 µM)
How it was run: (§1)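 Cells from lung cancer lines were seeded into 1536-well plates and, one day later, dosed by pin tool. Treatments were either a single drug or a fixed dose of an anchor drug with five library-drug doses (not always all listed) in √10 steps. After 5 days, nuclei were stained in a one-step fixation (final 0.05% Triton X-100, 1% formaldehyde, 1 ug/ml Hoechst) and counted on 4× images, and relative viability is the treated-to-vehicle nuclei ratio, as the median of duplicate plates.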

[2] = compound: C1=CC(=CC=C1C2=CC(=C(S2)NC(=O)N)C(=O)N)F [TPCA-1] + COc1cc2c(Oc3ccc(NC(=O)C4(C(=O)Nc5ccc(F)cc5)CC4)cc3F)ccnc2cc1OCCCN1CCOCC1 [Foretinib] (partner 0.25 µM)
How it was run: as §1

[3] = compound: C1=CC(=CC=C1C2=CC(=C(S2)NC(=O)N)C(=O)N)F [TPCA-1] + CS(=O)(=O)N1CCN(Cc2cc3nc(-c4cccc5[nH]ncc45)nc(N4CCOCC4)c3s2)CC1 [Pictilisib] (partner 1 µM)
How it was run: as §1

[4] = compound: C[C@]12O[C@H](C[C@]1(O)CO)n1c3ccccc3c3c4c(c5c6ccccc6n2c5c31)CNC4=O [Lestaurtinib] + Cc1nc(NC(=O)N2CCC[C@H]2C(N)=O)sc1-c1ccnc(C(C)(C)C(F)(F)F)c1 [Alpelisib] (partner 2 µM)
How it was run: as §1

Cell Line	relative viability ([1]; first compound 0.2 µM)	relative viability ([1]; first compound 0.6325 µM)	relative viability ([1]; first compound 2 µM)	relative viability ([1]; first compound 6.325 µM)	relative viability ([1]; first compound 20 µM)	relative viability ([2]; first compound 0.04 µM)	relative viability ([2]; first compound 0.1265 µM)	relative viability ([2]; first compound 0.4 µM)	relative viability ([2]; first compound 1.265 µM)	relative viability ([2]; first compound 4 µM)	relative viability ([3]; first compound 0.04 µM)	relative viability ([3]; first compound 0.1265 µM)	relative viability ([3]; first compound 0.4 µM)	relative viability ([3]; first compound 1.265 µM)	relative viability ([3]; first compound 4 µM)	relative viability ([4]; first compound 0.005 µM)	relative viability ([4]; first compound 0.01581 µM)	relative viability ([4]; first compound 0.1581 µM)	relative viability ([4]; first compound 0.5 µM)	relative viability ([4]; first compound 0.05 µM)
COR-L23	0.2	0.193	0.196	0.182	0.199	1.11	0.884	1.05	0.916	0.803	0.964	0.671	0.829	0.716	0.438	0.716	0.702	0.478	0.192	–
COR-L 105	1.37	1.04	1.26	1.06	1.13	1.01	1.1	1.23	1.2	0.983	0.475	0.364	0.463	0.306	0.248	1.07	0.926	0.583	0.248	0.773
EKVX	0.394	0.347	0.453	–	0.389	0.627	0.596	0.895	0.624	0.148	0.405	0.343	0.512	0.374	0.43	0.892	1.03	0.743	0.519	0.938
EMC-BAC-2	0.449	0.467	0.443	0.391	0.447	1.02	0.956	1.05	1.14	0.887	0.59	0.475	0.55	0.318	0.406	0.786	0.76	0.398	0.216	0.541
EPLC-272H	0.351	0.468	0.334	0.301	0.373	0.747	0.643	0.815	0.456	0.309	0.381	0.285	0.341	0.38	0.32	0.896	0.917	0.522	0.556	0.575
H3255	0.573	0.594	0.61	0.528	0.602	0.825	0.876	0.821	0.541	0.514	0.461	0.404	0.509	0.399	0.333	0.686	0.739	0.385	0.296	0.541
HARA	0.249	0.254	0.228	0.222	0.241	0.874	0.907	0.887	0.893	0.681	0.591	0.4	0.433	0.393	0.331	0.769	0.825	0.487	0.176	0.639
HCC-15	0.221	0.203	0.218	0.214	0.217	1.09	0.919	1.06	0.96	0.77	0.901	0.559	0.766	0.864	0.275	1.02	1.06	0.583	0.161	0.819
HCC-78	0.923	0.817	0.862	0.921	0.862	0.611	0.52	0.608	0.65	0.541	0.242	0.194	0.21	0.203	0.103	0.349	0.328	0.246	0.226	0.334
HCC-366	0.168	0.169	0.156	0.116	0.172	0.921	0.86	0.922	0.851	0.654	0.182	0.13	0.177	0.117	0.124	0.477	0.438	0.287	0.209	0.388
HCC-827	0.262	0.226	0.243	0.248	0.284	1.14	1.03	1.06	0.873	0.443	1.21	0.868	1.04	0.81	0.744	0.948	0.905	0.585	0.311	0.862
HOP-62	0.307	0.316	0.248	0.243	0.342	1.19	1.09	1.17	1.06	1.06	0.964	0.57	0.734	0.123	0.186	1.05	0.919	0.775	0.436	1.17
LC-2-ad	0.272	0.298	0.268	0.25	0.287	1.06	0.88	0.818	0.845	0.552	0.644	0.376	0.488	0.322	0.0862	0.961	0.829	0.227	0.139	0.354
LCLC-97TM1	0.175	0.178	0.167	0.165	0.187	1.11	0.877	0.94	0.633	0.587	0.183	0.157	0.199	0.151	0.111	0.256	0.189	0.138	0.148	0.171
LCLC-103H	0.477	0.444	0.447	0.433	0.47	0.899	0.813	0.758	0.839	0.64	0.659	0.593	0.553	0.587	0.656	1.06	0.991	0.683	0.651	0.678
LK-2	0.273	–	0.354	0.282	0.276	1.5	0.969	1.14	1.14	0.729	0.721	0.349	0.615	0.662	0.442	1.37	0.97	0.647	0.365	1.01
